# Measured values from US12103945B2, “Crystalline form of vascular leakage blocker compound” (Curacle Co., Ltd., priority 2020, dated 2024).
# How the values were obtained:
# Format in all cases: physicochemical
# [1] = Solubility assay by visual observation and manual dilution; settings: thermodynamic from solid, room temperature
# Experimental: Solubility assay was performed by visual observation and manual dilution at room temperature. […] The total amount of the solvent was recorded to calculate the solubility for each solvent.
# [2] = Dynamic vapor sorption (DVS); settings: for Mass change (%) Desorption / Mass change (%) Sorption / Mass change (%) Hysteresis: 25° C.
# Experimental: Around 10 mg of samples were used to test its moisture sorption/desorption profiles.
# • Temperature: 25° C. • Equilibrium: dm/dt: 0.01%/min • Relative Humidity (RH) measurement stepscope: 0%˜95%˜0% RH • Relative Humidity (RH) measurement step: 5% RH • Samples: 10-20 mg • Hygroscopicity Classification • Hygroscopicity: Water Sorption Criterion • Deliquescent: Sufficient water is absorbed to form a liquid. • Very hygroscopic: W %≥15% • Hygroscopic: W %≥2% • Slightly hygroscopic: W %≥0.2% • Non-hygroscopic: W %<0.2% • 25±1° C., 80±2% RH
# [3] = Thermal gravimetric analysis (TGA); settings: heating from room temperature to 120° C.
# Experimental: Samples of compounds (4˜6 mg) were weighed into the pan, and heated under nitrogen purge.
# • Ramp rate: 20° C./min over the range 30° C.˜300° C. • Nitrogen purge: 50 mL/min • Samples: About 5 mg
# [4] = Accelerated stability test (HPLC purity); settings: for Purity (%): 40 ± 2° C. & 75 ± 5% RH
# Experimental: • Column: Agilent Zorbax Rx C8, 4.6 mm×250 mm, 5.0 μm • Moving phase: 85% acetonitrile • Flow rate: 1.0 mL/rain • Wavelength: 205 nm • Injection volume: 10 λL • Column temperature: 30° C. • Diluent: 100% acetonitrile
# In order to confirm the stability of the novel crystalline form according to the present invention, the stability of the crystalline form I prepared in Example 1 was evaluated using a liquid chromatography method under the analysis conditions of <Experimental Methods>6. High performance liquid chromatography (HFLC). The results of the accelerated stability test from 1 month to 6 months in the conditions of 40±2° C. & 75±5 RH are shown in Table 15 below.
# [5] = Crystalline form change on storage at room temperature (XRPD)
# Experimental: The X-ray powder diffraction (XRPD) pattern was obtaine d on a Shimadzu XRD-6000 instrument.
# • Tube: Cu: K-α (λ=1.54056 Å) • Generator: Voltage: 40 kV; Current: 30 mA • Scan Scope: 3˜50 deg. Scanning rate: 5 deg./min
# […] Particularly, XRPD was performed according to the method described in <Experimental Methods> 1. X-ray Powder Diffractometer (XRPD).
# [6] = stored at room temperature for 2 months
# [7] = stored at room temperature for 3 months
structure (smiles),measurement,setting,value
"COC(=O)CCC/C=C(\C)[C@H]1CC[C@H]2[C@@H]3CC=C4C[C@@H](OC5C=C[C@H](OC(C)=O)[C@@H](COC(C)=O)O5)CC[C@]4(C)[C@H]3CC[C@]12C (stereo partly drawn) [compound 1, (E)-methyl 6-((3S,8S,9S,10R,13S,14S,17R)-3-(((5S,6R)-5-acetoxy-6-(acetoxymethyl)-5,6-dihydro-2H-pyran-2-yl)oxy)-10,13-dimethyl-2,3,4,7,8,9,10,11,12,13,14,15,16,17-tetradecahydro-1H-cyclopenta[a]phenanthrene-17-yl)hept-5-enoate]",solubility,"[1]; organic solvent or mixture, solvent 1,4-dioxane",> 100 mg/mL
same,solubility,"[1]; organic solvent or mixture, solvent 1-butanol",26 to 52 mg/mL
same,solubility,"[1]; organic solvent or mixture, solvent 2-methyl-tetrahydrofuran",> 93.2 mg/mL
same,solubility,"[1]; organic solvent or mixture, solvent Acetone",> 100 mg/mL
same,solubility,"[1]; organic solvent or mixture, solvent Acetonitrile (ACN)",> 82.6 mg/mL
same,solubility,"[1]; organic solvent or mixture, solvent Anisole",> 100 mg/mL
same,solubility,"[1]; organic solvent or mixture, solvent Butyl acetate",> 88.6 mg/mL
same,solubility,"[1]; organic solvent or mixture, solvent Chloroform",> 100 mg/mL
same,solubility,"[1]; organic solvent or mixture, solvent Cyclohexane",26 to 40 mg/mL
same,solubility,"[1]; organic solvent or mixture, solvent Dichloromethane (DCM)",> 100 mg/mL
same,solubility,"[1]; organic solvent or mixture, solvent Dimethyl sulfoxide (DMSO)",30 to 45 mg/mL
same,solubility,"[1]; organic solvent or mixture, solvent Ethanol (EtOH)",5.1 to 6.4 mg/mL
same,solubility,"[1]; organic solvent or mixture, solvent Ethyl acetate (EtOAc)",> 100 mg/mL
same,solubility,"[1]; organic solvent or mixture, solvent Isopropanol (IPA)",5.1 to 6.8 mg/mL
same,solubility,"[1]; organic solvent or mixture, solvent Isopropyl acetate (iPrOAc)",> 100 mg/mL
same,solubility,"[1]; organic solvent or mixture, solvent Isopropyl ether",65.2 to 130 mg/mL
same,solubility,"[1]; organic solvent or mixture, solvent Methanol (MeOH)",6.9 to 8.2 mg/mL
same,solubility,"[1]; organic solvent or mixture, solvent Methyl ethyl ketone (MEK)",> 100 mg/mL
same,solubility,"[1]; organic solvent or mixture, solvent Methyl tert-butyl ether (MTBE)",> 85.4 mg/mL
same,solubility,"[1]; organic solvent or mixture, solvent N,N-dimethylformamide (DMF)",> 100 mg/mL
same,solubility,"[1]; organic solvent or mixture, solvent Petroleum ether",11.5 to 15.3 mg/mL
same,solubility,"[1]; organic solvent or mixture, solvent Tetrahydrofuran (THF)",> 76 mg/mL
same,solubility,"[1]; organic solvent or mixture, solvent Toluene",> 83 mg/mL
same,solubility,"[1]; organic solvent or mixture, solvent n-heptane",6.3 to 8.8 mg/mL
same,solubility,"[1]; organic solvent or mixture, solvent n-propanol",26.1 to 52.1 mg/mL
same,solubility,[1]; solvent Water (H2O),< 1 mg/mL
"COC(=O)CCC/C=C(\C)[C@H]1CC[C@H]2[C@@H]3CC=C4C[C@@H](O[C@@H]5C=C[C@H](OC(C)=O)[C@@H](COC(C)=O)O5)CC[C@]4(C)[C@H]3CC[C@]12C [crystalline form I, (E)-methyl 6-((3S,8S,9S,10R,13S,14S,17R)-3-(((2S,5S,6R)-5-acetoxy-6-(acetoxymethyl)-5,6-dihydro-2H-pyran-2-yl)oxy)-10,13-dimethyl-2,3,4,7,8,9,10,11,12,13,14,15,16,17-tetradecahydro-1H-cyclopenta[a]phenanthrene-17-yl)hept-5-enoate]",Mass change (%) Desorption,[2]; Target RH 0.0%,−0.1124%
same,Mass change (%) Sorption,[2]; Target RH 0.0%,0.0000%
same,Mass change (%) Desorption,[2]; Target RH 5.0%,−0.1004%
same,Mass change (%) Hysteresis,[2]; Target RH 5.0%,−0.1074%
same,Mass change (%) Sorption,[2]; Target RH 5.0%,0.0070%
same,Mass change (%) Desorption,[2]; Target RH 10.0%,−0.0904%
same,Mass change (%) Hysteresis,[2]; Target RH 10.0%,−0.1034%
same,Mass change (%) Sorption,[2]; Target RH 10.0%,0.0131%
same,Mass change (%) Desorption,[2]; Target RH 15.0%,−0.0773%
same,Mass change (%) Hysteresis,[2]; Target RH 15.0%,−0.0964%
same,Mass change (%) Sorption,[2]; Target RH 15.0%,0.0191%
same,Mass change (%) Desorption,[2]; Target RH 20.0%,−0.0673%
same,Mass change (%) Hysteresis,[2]; Target RH 20.0%,−0.0906%
same,Mass change (%) Sorption,[2]; Target RH 20.0%,0.0231%
same,Mass change (%) Desorption,[2]; Target RH 25.0%,−0.0492%
same,Mass change (%) Hysteresis,[2]; Target RH 25.0%,−0.0803%
same,Mass change (%) Sorption,[2]; Target RH 25.0%,0.0311%
same,Mass change (%) Desorption,[2]; Target RH 30.0%,−0.0402%
same,Mass change (%) Hysteresis,[2]; Target RH 30.0%,−0.0723%
same,Mass change (%) Sorption,[2]; Target RH 30.0%,0.0321%
same,Mass change (%) Desorption,[2]; Target RH 35.0%,−0.0261%
same,Mass change (%) Hysteresis,[2]; Target RH 35.0%,−0.0592%
same,Mass change (%) Sorption,[2]; Target RH 35.0%,0.0331%
same,Mass change (%) Desorption,[2]; Target RH 40.0%,−0.0131%
same,Mass change (%) Hysteresis,[2]; Target RH 40.0%,−0.0582%
same,Mass change (%) Sorption,[2]; Target RH 40.0%,0.0452%
same,Mass change (%) Desorption,[2]; Target RH 45.0%,0.0000%
same,Mass change (%) Hysteresis,[2]; Target RH 45.0%,−0.0512%
same,Mass change (%) Sorption,[2]; Target RH 45.0%,0.0512%
same,Mass change (%) Desorption,[2]; Target RH 50.0%,0.0141%
same,Mass change (%) Hysteresis,[2]; Target RH 50.0%,−0.0462%
same,Mass change (%) Sorption,[2]; Target RH 50.0%,0.0602%
same,Mass change (%) Desorption,[2]; Target RH 55.0%,0.0261%
same,Mass change (%) Hysteresis,[2]; Target RH 55.0%,−0.0381%
same,Mass change (%) Sorption,[2]; Target RH 55.0%,0.0642%
same,Mass change (%) Desorption,[2]; Target RH 60.0%,0.0392%
same,Mass change (%) Hysteresis,[2]; Target RH 60.0%,−0.0351%
same,Mass change (%) Sorption,[2]; Target RH 60.0%,0.0743%
same,Mass change (%) Desorption,[2]; Target RH 65.0%,0.0522%
same,Mass change (%) Hysteresis,[2]; Target RH 65.0%,−0.0291%
same,Mass change (%) Sorption,[2]; Target RH 65.0%,0.0813%
same,Mass change (%) Desorption,[2]; Target RH 70.0%,0.0663%
same,Mass change (%) Hysteresis,[2]; Target RH 70.0%,−0.0231%
same,Mass change (%) Sorption,[2]; Target RH 70.0%,0.0893%
same,Mass change (%) Desorption,[2]; Target RH 75.0%,0.0823%
same,Mass change (%) Hysteresis,[2]; Target RH 75.0%,−0.0191%
same,Mass change (%) Sorption,[2]; Target RH 75.0%,0.1014%
same,Mass change (%) Desorption,[2]; Target RH 80.0%,0.0964%
same,Mass change (%) Hysteresis,[2]; Target RH 80.0%,−0.0131%
same,Mass change (%) Sorption,[2]; Target RH 80.0%,0.1094%
same,Mass change (%) Desorption,[2]; Target RH 85.0%,0.1114%
same,Mass change (%) Hysteresis,[2]; Target RH 85.0%,−0.0080%
same,Mass change (%) Sorption,[2]; Target RH 85.0%,0.1195%
same,Mass change (%) Desorption,[2]; Target RH 90.0%,0.1325%
same,Mass change (%) Hysteresis,[2]; Target RH 90.0%,−0.0010%
same,Mass change (%) Sorption,[2]; Target RH 90.0%,0.1335%
same,Mass change (%) Desorption,[2]; Target RH 95.0%,0.1436%
same,Mass change (%) Sorption,[2]; Target RH 95.0%,0.1436%
same,Hygroscopicity classification,"[2]; 25±1° C., 80±2% RH",non-hygroscopic
same,water sorption,[2]; at 80% RH,0.11%
same,mass loss (TGA),[3],0.078%
same,Purity (%),[4]; storage time 1 month,99.8%
same,Purity (%),[4]; storage time 3 months,99.8%
same,Purity (%),[4]; storage time 6 months,99.8%
same,Purity (%),[4]; storage time Initial,99.8%
same,Accelerated stability (result in words),"[4]; 40±2° C. & 75±5 RH, 1 month to 6 months",stably maintained for up to 6 months without affecting the purity
"COC(=O)CCC/C=C(\C)[C@H]1CC[C@H]2[C@@H]3CC=C4C[C@@H](O[C@@H]5C=C[C@H](OC(C)=O)[C@@H](COC(C)=O)O5)CC[C@]4(C)[C@H]3CC[C@]12C [crystalline form IV, (E)-methyl 6-((3S,8S,9S,10R,13S,14S,17R)-3-(((2S,5S,6R)-5-acetoxy-6-(acetoxymethyl)-5,6-dihydro-2H-pyran-2-yl)oxy)-10,13-dimethyl-2,3,4,7,8,9,10,11,12,13,14,15,16,17-tetradecahydro-1H-cyclopenta[a]phenanthrene-17-yl)hept-5-enoate]",Change of crystalline form (XRPD pattern),[5]; [6],a novel crystalline form having the XRPD pattern different from that of the crystalline form IV was confirmed
same,Change of crystalline form (XRPD pattern),[5]; [7],a novel crystalline form having the XRPD pattern different from that of the crystalline form IV was confirmed
"COC(=O)CCC/C=C(\C)[C@H]1CC[C@H]2[C@@H]3CC=C4C[C@@H](O[C@@H]5C=C[C@H](OC(C)=O)[C@@H](COC(C)=O)O5)CC[C@]4(C)[C@H]3CC[C@]12C [crystalline form V, (E)-methyl 6-((3S,8S,9S,10R,13S,14S,17R)-3-(((2S,5S,6R)-5-acetoxy-6-(acetoxymethyl)-5,6-dihydro-2H-pyran-2-yl)oxy)-10,13-dimethyl-2,3,4,7,8,9,10,11,12,13,14,15,16,17-tetradecahydro-1H-cyclopenta[a]phenanthrene-17-yl)hept-5-enoate]",Change of crystalline form (XRPD pattern),[5]; [6],a novel crystalline form having the XRPD pattern different from that of the crystalline form V was confirmed
same,Change of crystalline form (XRPD pattern),[5]; [7],a novel crystalline form having the XRPD pattern different from that of the crystalline form V was confirmed
